In publication PMC9963937, “Synergistic Combination of Irinotecan and Rapamycin Orally Delivered by Nanoemulsion for Enhancing Therapeutic Efficacy of Pancreatic Cancer” (Pharmaceutics, 2023):
Read-outs that look alike come from different tables or passages of the source.

Tests used:
[1] = test system: MIA PaCa-2 pancreatic cancer cell line; experiment: MTT cell viability assay; format: cell-based; details: Homo sapiens, read-out: IC50 against MIA PaCa-2 cells
Description: To evaluate the cytotoxicity and combination effects of rapamycin and silymarin as well as free irinotecan, we performed the 3-(4,5-dimethylthiazol-2-yl)-2,5-diphenyl-2H-tetrazolium bromide (MTT) assay by using the MIA PaCa-2 pancreatic cancer cell line. Briefly, the cells were seeded in a 96-well plate at a density of 3 × 10^4 cells/well and incubated at 37 °C with 5% CO2 for 24 h. After 24 h, the cells were treated with different concentrations of free irinotecan (0–300 µM), rapamycin (0–300 µM), SN38 (0–300 nM), and silymarin (0–1000 µM). To determine the combination effect, the cells were treated with different ratios of irinotecan/rapamycin and SN38/rapamycin (1/0.3, 1/0.5, 1/1, and 1/2) and irinotecan/silymarin and SN38/silymarin (1/1 and 1/2). All the cells were incubated with the drugs for 24–48 h. Then, the MTT reagent and dimethyl sulfoxide were added for the formation and the dissolution of purple formazan crystals. The absorbance of each well was measured at 550 nm on a Cytation 3 cell imaging multimode reader (BioTek, Winooski, VT, USA). The half-maximal inhibitory concentration (IC50) and combination index (CI) of the drugs were calculated using CompuSyn Sofware (Paramus, NJ, USA) through the Chou–Talalay method. In the Chou–Talalay method, the CI values of <0.9, >1.1, and 0.9–1.1 indicated synergistic, antagonistic, and additive effects, respectively. Each data point was the mean of at least six individual experiments.

[2] = In vitro release from LBSNENP, USP Apparatus 2 dissolution; format: physicochemical; details: endpoint (60 min)
Description: The contents of irinotecan and rapamycin in LBSNENPir and LBSNENPra were detected through HPLC. To determine the irinotecan content, we used the Waters 600E HPLC system with the SunFire C18 column (4.6 mm × 250 mm I.D., 5 μm; Waters). The mobile phase consisted of 10 mM phosphate buffer (pH 3.0)/acetonitrile/tetrahydrofuran (65/35/2 v/v), the flow rate was 0.8 mL/min, the column was maintained at 40 °C, the injection volume was 20 µL, and the fluorescence detector was set at the excitation and emission wavelengths of 370 and 470 nm, respectively. To determine the rapamycin content, we used the JASCO HPLC system with the Inersil ODS-2 C18 column (4.0 mm × 150 mm I.D., 5 μm). The mobile phase was a mixture of acetonitrile and water (20/80 v/v), the flow rate was 1.0 mL/min, the column was maintained at 55 °C, the injection volume was 100 µL, and the UV detector was set at the wavelength of 278 nm. Each data point came from the mean of at least three individual trials. The assay method was also well validated before. […]
The in vitro release of irinotecan and rapamycin from LBSNENP was examined using the dissolution method on United States Pharmacopeia (USP) Apparatus 2 (VK7000, Vankel, UK). […] The contents of irinotecan and rapamycin were determined through HPLC as described in the earlier text. […]

For CCc1c2c(nc3ccc(OC(=O)N4CCC(N5CCCCC5)CC4)cc13)-c1cc3c(c(=O)n1C2)COC(=O)[C@]3(O)CC [irinotecan, Irinotecan], the IC50 ([1]; MIA PaCa-2, 24 h) was 4.78 ± 9.42 µM, the IC50 ([1]; MIA PaCa-2, 48 h) was 12.2 ± 4.56 µM and the “dissolution percentage of raw irinotecan powder at the endpoint” value ([2]; buffer pH 1.2, 37 °C, 50 rpm) was “approximately 63%”.
With CO[C@H]1C[C@@H]2CC[C@@H](C)[C@@](O)(O2)C(=O)C(=O)N2CCCC[C@H]2C(=O)O[C@H]([C@H](C)C[C@@H]2CC[C@@H](O)[C@H](OC)C2)CC(=O)[C@H](C)/C=C(\C)[C@@H](O)[C@@H](OC)C(=O)[C@H](C)C[C@H](C)/C=C/C=C/C=C/1C [rapamycin, Rapamycin] the IC50 ([1]; MIA PaCa-2, 24 h) was 2.98 ± 0.97 µM, the IC50 ([1]; MIA PaCa-2, 48 h) was 3.88 ± 1.17 µM and the “dissolution percentage of raw rapamycin powder at the endpoint” value ([2]; 0.4% sodium lauryl sulfate solution, 37 °C, 100 rpm) was roughly 32%.
